Here are results for 20 compounds from patent US20160235752A1, “COMPOSITIONS, METHODS OF USE, AND METHODS OF TREATMENT” (THE UNIVERSITY OF NEW ORLEANS, priority 2013, published 2016).

Experiment [1] deals with Candida glabrata (ATCC no. 48435). The experiment in a line: MIC determination by broth microdilution (NCCLS), visual scoring. It is filed as cell-based. As to the method:
The antifungal activity of the 2,4,6-pyrimidinetrione analogs shown in Schemes 2-6 were evaluated in vitro using Candida albicans (ATCC no. 10231) and Candida glabrata (ATCC no 48435). All assays were done in accordance with NCCLS reference documents^29. The results of these screenings are summarized in Tables 1-9 as the minimal inhibitory concentrations that inhibited more than 80% fungal growth as compared to the positive controls in 1% DMSO and RPMI media. All MIC screens were done using a visual scoring method as opposed to spectroscopic methods of analysis, due to the physical properties of many of the compounds altering their absorbance spectra relative to the positive, negative and drug controls.
None of the compounds tested over the course of these studies were soluble in water and DMSO was used to dilute each compound tested. Master stock concentrations of all tested compounds were prepared to ensure that the maximum final concentration of DMSO was 1% or less. Subsequent 2-fold serial dilutions were made using sterile water to a final concentration of 1280-5.00 μg/ml. A final 10-fold dilution of each drug was made by aliquotting 0.1 mL of each drug dilution into 0.9 mL of fungal suspension in RPMI 1640 media with 10 mM HEPES buffer added (see methodology below), giving final concentrations tested in the range of 128-0.5 μg/ml.
Antifungal susceptibility studies and minimal inhibitory concentrations (MIC) values for Candida albicans (ATCC no. 10231) and Candida glabrata (ATCC no. 48435) were determined by the broth microdilution technique in accordance with NCCLS reference documents. Microdilution panels ranged from 0.5 to 128 μg/mL. All organisms were subcultured on Sabouraud agar and passaged to ensure purity and viability. The initiating inocula were prepared by picking 5-7 isolated colonies ˜1 mm in diameter from freshly prepared YM agar plates. Colonies were resuspended in sterile water, vortexed and the cell density was adjusted spectrophotometrically to the transmittance of a 0.5 McFarland standard at a wavelength of 530 nm, to yield a stock suspension of 1×10^6-5×10^6 cells/mL. The stock was allowed to hydrate for 30 minutes at room temperature. A working suspension was then made by diluting the stock 1:50 with RPMI 1640 media containing HEPES buffer. The working suspension was used for all assays. The plates were incubated at 35° C. for 48-72 hours in a humid atmosphere. Growth was scored visually. MIC values are defined as the lowest concentration of agent that prevents any discernible growth, ˜80% reduction of growth, as compared with drug-free control wells. All assays were run in parallel using either fluconazole or amphotericin B at the NCCLS recommended concentrations^29 as a drug control (Sigma-Aldrich).

Experiment [2] deals with Candida albicans (ATCC no. 10231). Described as above. In kind it is cell-based. The gist of the method: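 NCCLS broth microdilution in RPMI 1640 with 10 mM HEPES, final compound 0.5–128 μg/mL, DMSO ≤1%. Inoculum from 0.5 McFarland stock diluted 1:50; incubated 35 °C for 48–72 h. MIC scored visually as lowest concentration giving ~80% growth reduction versus drug-free wells.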

Where [3] appears, read: Table 2, 5-Arylidene-2,4,6-pyrimidinetriones.
[4] abbreviates: Table 3, 5-Alkylated Pyrimidinetriones.

SMILES strings stand for the structures. Values after ≈ are worked out from the molar mass of the structure shown. A value given as a limit tells only on which side of the number the result lay.

For `O=C1NC(=O)C(=Cc2ccc(O)cc2)C(=O)N1` [BA44], the “MIC80 C. glabrata” value in experiment [1] (setting [3]) is “— (none of the 5-acyl-2,4,6-pyrimidinetriones, 5-alkylated pyrimidinetriones or the 5,5-dialkylated pyrimidinetriones showed antifungal activity through 125 μg/mL)”. For the same compound, the “MIC80 C. albicans” value in experiment [2] (setting [3]) is listed as “— (none of the 5-acyl-2,4,6-pyrimidinetriones, 5-alkylated pyrimidinetriones or the 5,5-dialkylated pyrimidinetriones showed antifungal activity through 125 μg/mL)”.

Take `CN1C(=O)C(=Cc2ccc(O)cc2)C(=O)N(C)C1=O` [BA45]: the “MIC80 C. glabrata” value in experiment [1] (setting [3]) is recorded as “— (none of the 5-acyl-2,4,6-pyrimidinetriones, 5-alkylated pyrimidinetriones or the 5,5-dialkylated pyrimidinetriones showed antifungal activity through 125 μg/mL)”. Also, in experiment [2] (setting [3]), the “MIC80 C. albicans” value is reported as “— (none of the 5-acyl-2,4,6-pyrimidinetriones, 5-alkylated pyrimidinetriones or the 5,5-dialkylated pyrimidinetriones showed antifungal activity through 125 μg/mL)”.

Regarding `O=C1NC(=O)N(c2ccccc2)C(=O)C1=Cc1ccc(O)cc1` [BA46], the “MIC80 C. glabrata” value in experiment [1] (setting [3]) was “— (none of the 5-acyl-2,4,6-pyrimidinetriones, 5-alkylated pyrimidinetriones or the 5,5-dialkylated pyrimidinetriones showed antifungal activity through 125 μg/mL)”. Besides, the “MIC80 C. albicans” value in experiment [2] (setting [3]) is “— (none of the 5-acyl-2,4,6-pyrimidinetriones, 5-alkylated pyrimidinetriones or the 5,5-dialkylated pyrimidinetriones showed antifungal activity through 125 μg/mL)”.

`O=C1NC(=O)C(=Cc2ccccc2O)C(=O)N1` [BA47, 5-(2-hydroxybenzylidene)pyrimidine-2,4,6-trione]: the MIC80 in experiment [1] (Nakaseomyces glabratus, ATCC48435, read-out: MIC80 C. glabrata) is 8 µg/mL (≈ 34.5 µM); in experiment [2] (Candida albicans, ATCC10231, read-out: MIC80 C. albicans) it was more than 125 µg/mL.

`CN1C(=O)C(=Cc2ccc(O)cc2O)C(=O)N(C)C1=O` [BA48]: the “MIC80 C. glabrata” value in experiment [1] (setting [3]) turned out to be 2 µg/mL (≈ 7.24 µM). For the same compound, in experiment [2] (setting [3]), the “MIC80 C. albicans” value was “— (none of the 5-acyl-2,4,6-pyrimidinetriones, 5-alkylated pyrimidinetriones or the 5,5-dialkylated pyrimidinetriones showed antifungal activity through 125 μg/mL)”.

For the compound `COc1ccc(C=C2C(=O)N(C)C(=O)N(C)C2=O)cc1` [BA50], the “MIC80 C. glabrata” value in experiment [1] (setting [3]) is “— (none of the 5-acyl-2,4,6-pyrimidinetriones, 5-alkylated pyrimidinetriones or the 5,5-dialkylated pyrimidinetriones showed antifungal activity through 125 μg/mL)”. In experiment [2] (setting [3]), the “MIC80 C. albicans” value is “— (none of the 5-acyl-2,4,6-pyrimidinetriones, 5-alkylated pyrimidinetriones or the 5,5-dialkylated pyrimidinetriones showed antifungal activity through 125 μg/mL)”.

For `COc1ccc(C=C2C(=O)N(C)C(=O)N(C)C2=O)c(OC)c1OC` [BA51], the “MIC80 C. glabrata” value in experiment [1] (setting [3]) is given as “— (none of the 5-acyl-2,4,6-pyrimidinetriones, 5-alkylated pyrimidinetriones or the 5,5-dialkylated pyrimidinetriones showed antifungal activity through 125 μg/mL)”. For the same compound, the “MIC80 C. albicans” value in experiment [2] (setting [3]) was “— (none of the 5-acyl-2,4,6-pyrimidinetriones, 5-alkylated pyrimidinetriones or the 5,5-dialkylated pyrimidinetriones showed antifungal activity through 125 μg/mL)”.

Turning to `COc1cc(OC)c(C=C2C(=O)N(C)C(=O)N(C)C2=O)c(OC)c1` [BA52], the “MIC80 C. glabrata” value in experiment [1] (setting [3]) was “— (none of the 5-acyl-2,4,6-pyrimidinetriones, 5-alkylated pyrimidinetriones or the 5,5-dialkylated pyrimidinetriones showed antifungal activity through 125 μg/mL)”. For the same compound, the “MIC80 C. albicans” value in experiment [2] (setting [3]) was “— (none of the 5-acyl-2,4,6-pyrimidinetriones, 5-alkylated pyrimidinetriones or the 5,5-dialkylated pyrimidinetriones showed antifungal activity through 125 μg/mL)”.

As to `CN(C)c1ccc(C=C2C(=O)NC(=O)NC2=O)cc1` [BA53], in experiment [1] (setting [3]), the “MIC80 C. glabrata” value was “— (none of the 5-acyl-2,4,6-pyrimidinetriones, 5-alkylated pyrimidinetriones or the 5,5-dialkylated pyrimidinetriones showed antifungal activity through 125 μg/mL)”. The “MIC80 C. albicans” value in experiment [2] (setting [3]) amounted to 62 µg/mL (≈ 239 µM).

For the compound `CN1C(=O)C(=Cc2ccc(N(C)C)cc2)C(=O)N(C)C1=O` [BA54], in experiment [1] (setting [3]), the “MIC80 C. glabrata” value was “— (none of the 5-acyl-2,4,6-pyrimidinetriones, 5-alkylated pyrimidinetriones or the 5,5-dialkylated pyrimidinetriones showed antifungal activity through 125 μg/mL)”. Moreover, the “MIC80 C. albicans” value in experiment [2] (setting [3]) was “— (none of the 5-acyl-2,4,6-pyrimidinetriones, 5-alkylated pyrimidinetriones or the 5,5-dialkylated pyrimidinetriones showed antifungal activity through 125 μg/mL)”.

As for `O=C1NC(=O)C(=Cc2ccoc2)C(=O)N1` [BA55], the “MIC80 C. glabrata” value in experiment [1] (setting [3]) is “— (none of the 5-acyl-2,4,6-pyrimidinetriones, 5-alkylated pyrimidinetriones or the 5,5-dialkylated pyrimidinetriones showed antifungal activity through 125 μg/mL)”. Moreover, in experiment [2] (setting [3]), the “MIC80 C. albicans” value is “— (none of the 5-acyl-2,4,6-pyrimidinetriones, 5-alkylated pyrimidinetriones or the 5,5-dialkylated pyrimidinetriones showed antifungal activity through 125 μg/mL)”.

Consider `O=C1NC(=O)C(=Cc2ccco2)C(=O)N1` [BA56], for which the “MIC80 C. glabrata” value in experiment [1] (setting [3]) was “— (none of the 5-acyl-2,4,6-pyrimidinetriones, 5-alkylated pyrimidinetriones or the 5,5-dialkylated pyrimidinetriones showed antifungal activity through 125 μg/mL)”. For the same compound, the “MIC80 C. albicans” value in experiment [2] (setting [3]) is given as “— (none of the 5-acyl-2,4,6-pyrimidinetriones, 5-alkylated pyrimidinetriones or the 5,5-dialkylated pyrimidinetriones showed antifungal activity through 125 μg/mL)”.

`CCCCCCCC1C(=O)NC(=O)NC1=O` [BA60]: the “MIC80 C. glabrata” value in experiment [1] (setting [4]) was “— (none of the 5-acyl-2,4,6-pyrimidinetriones, 5-alkylated pyrimidinetriones or the 5,5-dialkylated pyrimidinetriones showed antifungal activity through 125 μg/mL)”. Also, in experiment [2] (setting [4]), the “MIC80 C. albicans” value was “— (none of the 5-acyl-2,4,6-pyrimidinetriones, 5-alkylated pyrimidinetriones or the 5,5-dialkylated pyrimidinetriones showed antifungal activity through 125 μg/mL)”.

As for `CC(C)C1C(=O)NC(=O)N(c2ccccc2)C1=O` (stereo not shown) [BA61], in experiment [1] (setting [4]), the “MIC80 C. glabrata” value was “— (none of the 5-acyl-2,4,6-pyrimidinetriones, 5-alkylated pyrimidinetriones or the 5,5-dialkylated pyrimidinetriones showed antifungal activity through 125 μg/mL)”. In addition, in experiment [2] (setting [4]), the “MIC80 C. albicans” value is “— (none of the 5-acyl-2,4,6-pyrimidinetriones, 5-alkylated pyrimidinetriones or the 5,5-dialkylated pyrimidinetriones showed antifungal activity through 125 μg/mL)”.

As for `O=C1NC(=O)C(C2CCCCC2)C(=O)N1` [BA62], the “MIC80 C. glabrata” value in experiment [1] (setting [4]) is “— (none of the 5-acyl-2,4,6-pyrimidinetriones, 5-alkylated pyrimidinetriones or the 5,5-dialkylated pyrimidinetriones showed antifungal activity through 125 μg/mL)”. The “MIC80 C. albicans” value in experiment [2] (setting [4]) is given as “— (none of the 5-acyl-2,4,6-pyrimidinetriones, 5-alkylated pyrimidinetriones or the 5,5-dialkylated pyrimidinetriones showed antifungal activity through 125 μg/mL)”.

For the compound `O=C1NC(=O)C(CCCC2CCCCC2)C(=O)N1` [BA63], in experiment [1] (setting [4]), the “MIC80 C. glabrata” value was “— (none of the 5-acyl-2,4,6-pyrimidinetriones, 5-alkylated pyrimidinetriones or the 5,5-dialkylated pyrimidinetriones showed antifungal activity through 125 μg/mL)”. Besides, the “MIC80 C. albicans” value in experiment [2] (setting [4]) is “— (none of the 5-acyl-2,4,6-pyrimidinetriones, 5-alkylated pyrimidinetriones or the 5,5-dialkylated pyrimidinetriones showed antifungal activity through 125 μg/mL)”.

In the case of `O=C1NC(=O)C(CC2CCC(O)CC2)C(=O)N1` (stereo not shown) [BA64], the “MIC80 C. glabrata” value in experiment [1] (setting [4]) is “— (none of the 5-acyl-2,4,6-pyrimidinetriones, 5-alkylated pyrimidinetriones or the 5,5-dialkylated pyrimidinetriones showed antifungal activity through 125 μg/mL)”. Besides, in experiment [2] (setting [4]), the “MIC80 C. albicans” value is recorded as “— (none of the 5-acyl-2,4,6-pyrimidinetriones, 5-alkylated pyrimidinetriones or the 5,5-dialkylated pyrimidinetriones showed antifungal activity through 125 μg/mL)”.

In the case of `O=C1NC(=O)N(c2ccccc2)C(=O)C1CC1CCC(O)CC1` (stereo not shown) [BA65], the “MIC80 C. glabrata” value in experiment [1] (setting [4]) is recorded as “— (none of the 5-acyl-2,4,6-pyrimidinetriones, 5-alkylated pyrimidinetriones or the 5,5-dialkylated pyrimidinetriones showed antifungal activity through 125 μg/mL)”. Further, the “MIC80 C. albicans” value in experiment [2] (setting [4]) is listed as “— (none of the 5-acyl-2,4,6-pyrimidinetriones, 5-alkylated pyrimidinetriones or the 5,5-dialkylated pyrimidinetriones showed antifungal activity through 125 μg/mL)”.

`O=C1NC(=O)C(CCCc2ccccc2)C(=O)N1` [BA66]: the “MIC80 C. glabrata” value in experiment [1] (setting [4]) was “— (none of the 5-acyl-2,4,6-pyrimidinetriones, 5-alkylated pyrimidinetriones or the 5,5-dialkylated pyrimidinetriones showed antifungal activity through 125 μg/mL)”. The “MIC80 C. albicans” value in experiment [2] (setting [4]) is reported as “— (none of the 5-acyl-2,4,6-pyrimidinetriones, 5-alkylated pyrimidinetriones or the 5,5-dialkylated pyrimidinetriones showed antifungal activity through 125 μg/mL)”.

For `CN1C(=O)C(CCCc2ccccc2)C(=O)N(C)C1=O` [BA67], the “MIC80 C. glabrata” value in experiment [1] (setting [4]) was “— (none of the 5-acyl-2,4,6-pyrimidinetriones, 5-alkylated pyrimidinetriones or the 5,5-dialkylated pyrimidinetriones showed antifungal activity through 125 μg/mL)”. Besides, in experiment [2] (setting [4]), the “MIC80 C. albicans” value was “— (none of the 5-acyl-2,4,6-pyrimidinetriones, 5-alkylated pyrimidinetriones or the 5,5-dialkylated pyrimidinetriones showed antifungal activity through 125 μg/mL)”.
